Measurements reported in US20240050399A1, “PHARMACEUTICAL COMPOSITIONS, COMPRISING A COMBINATION OF SELECT CARRIERS AND […] ANTIPATHOGENS” (EpitoGenesis, Inc., priority 2020, published 2024).
Values after ≈ are worked out from the molar mass of the structure shown.

Tested on: SARS-CoV-2 USA-WA1/2020
Assay: Neutralization assay of SARS-CoV-2 with EGCG, quantified by Avicel plaque reduction assay on VeroE6 cells
Format: cell-based
Settings: for IC50: normalized against control (virus in DMEM)

O=C(O[C@@H]1Cc2c(O)cc(O)cc2O[C@@H]1c1cc(O)c(O)c(O)c1)c1cc(O)c(O)c(O)c1 [EGCG, epigallocatechin gallate]
in vitro antiviral activity on vero cells infected with SARS-CoV-2 (FIG. 1, plaque reduction): strong in vitro antiviral activity | IC50 (dilution series 1): 42.65 µg/mL (≈ 93 µM) | IC50 (dilution series 2): 32.89 µg/mL (≈ 71.8 µM) | IC50 (dilution series 3): 36.09 µg/mL (≈ 78.7 µM)
